Results from ChEMBL document CHEMBL5257091, “Hydrazinecarbonyl-thiazol-2-acetamides with pronounced apoptotic behavior: synthesis, in vitro/in vivo anti-proliferative activity and molecular modeling simulations” (Bioorg Med Chem Lett, 2023).

Assays:
HepG2 = experiment: Antiproliferative activity against human HepG2 cells assessed as inhibition of cell growth incubated for 24 hrs by MTT assay; type: functional, cell-based; conditions: HepG2, 24 h
MCF7 [1] = experiment: Antiproliferative activity against human MCF7 cells assessed as inhibition of cell growth incubated for 24 hrs by MTT assay; type: functional, cell-based; conditions: MCF7, 24 h
HeLa [2] = experiment: Antiproliferative activity against human HeLa cells assessed as inhibition of cell growth incubated for 24 hrs by MTT assay; type: functional, cell-based
HEp-2 = experiment: Antiproliferative activity against human HEp-2 cells assessed as inhibition of cell growth incubated for 24 hrs by MTT assay; type: functional, cell-based; conditions: HEp-2, 24 h
PC-3 = experiment: Antiproliferative activity against human PC-3 cells assessed as inhibition of cell growth incubated for 24 hrs by MTT assay; type: functional, cell-based; conditions: PC-3, 24 h
HCT-116 = experiment: cells; conditions: Homo sapiens, HCT-116, 24 h
Description: Antiproliferative activity against human HCT-116 cells assessed as inhibition of cell growth incubated for 24 hrs by MTT assay

[3] = Toxicity in Swiss albino mouse implanted with mouse Ehrlich cells assessed as mean body weight at 10 mg/kg, iv administered once daily for 20 days (reference value: 30 g); type: organism-based; conditions: in vivo, 480 h, time 20 day
Ehrlich = experiment: Antitumor activity against mouse Ehrlich cells implanted in Swiss albino mouse assessed as reduction in tumor volume at 10 mg/kg, iv administered once daily for 20 days relative to control; type: functional; design: scale not given: the % may be the effect or the level left; conditions: time 20 day
[4] = Toxicity in Swiss albino mouse implanted with mouse Ehrlich cells assessed as reduction in body weight gain at 10 mg/kg, iv administered once daily for 20 days relative to control; type: organism-based; design: scale not given: the % may be the effect or the level left; conditions: in vivo, 480 h, time 20 day
[5] = Selectivity index, ratio of IC50 for cytotoxicity against human WI-38 cells to IC50 for antiproliferative activity against human MCF7 cells; type: toxicity, cell-based; conditions: WI-38 cells and MCF7 cells, read-out: Ratio IC50
[6] = Selectivity index, ratio of IC50 for cytotoxicity against human WI-38 cells to IC50 for antiproliferative activity against human HCT-116 cells; type: toxicity, cell-based; conditions: WI-38 cells and HCT-116 cells, read-out: Ratio IC50
[7] = Selectivity index, ratio of IC50 for cytotoxicity against human WI-38 cells to IC50 for antiproliferative activity against human HepG2 cells; type: toxicity, cell-based; conditions: WI-38 cells and HepG2 cells, read-out: Ratio IC50
[8] = Selectivity index, ratio of IC50 for cytotoxicity against human WI-38 cells to IC50 for antiproliferative activity against human HeLa cells; type: toxicity, cell-based; conditions: WI-38 cells and HeLa cells, read-out: Ratio IC50
[9] = Selectivity index, ratio of IC50 for cytotoxicity against human WI-38 cells to IC50 for antiproliferative activity against human HEp-2 cells; type: toxicity, cell-based; conditions: WI-38 cells and HEp-2 cells, read-out: Ratio IC50
[10] = Selectivity index, ratio of IC50 for cytotoxicity against human WI-38 cells to IC50 for antiproliferative activity against human PC-3 cells; type: toxicity, cell-based; conditions: WI-38 cells and PC-3 cells, read-out: Ratio IC50
[11] = Cytotoxicity against human WI-38 cells assessed as inhibition of cell growth incubated for 24 hrs by MTT assay; type: toxicity, cell-based
MCF7 [12] = experiment: Induction of cell cycle arrest in human MCF7 cells assessed as cell debris incubated for 24 hrs by PI staining based flow cytometry analysis (reference value: 2.12%); type: functional
HeLa [13] = experiment: Induction of apoptosis in human HeLa cells assessed as late apoptotic cells incubated for 24 hrs by annexin V-FITC/PI staining based flow cytometry analysis (reference value: 0.16%); type: functional
HeLa [14] = experiment: Induction of cell cycle arrest in human HeLa cells assessed as accumulation of cells at G2/M phase incubated for 24 hrs by PI staining based flow cytometry analysis (reference value: 10.38%); type: functional
HeLa [15] = experiment: Induction of cell cycle arrest in human HeLa cells assessed as accumulation of cells at pre-G1 phase incubated for 24 hrs by PI staining based flow cytometry analysis (reference value: 1.85%); type: functional
MCF7 [16] = experiment: Induction of apoptosis in human MCF7 cells assessed as early apoptotic cells incubated for 24 hrs by annexin V-FITC/PI staining based flow cytometry analysis (reference value: 0.62%); type: functional
MCF7 [17] = experiment: Induction of cell cycle arrest in human MCF7 cells assessed as cell aggregates incubated for 24 hrs by PI staining based flow cytometry analysis (reference value: 1.75%); type: functional
HeLa [18] = experiment: Induction of cell cycle arrest in human HeLa cells assessed as accumulation of cells at S phase incubated for 24 hrs by PI staining based flow cytometry analysis (reference value: 28.54%); type: functional
MCF7 [19] = experiment: Induction of apoptosis in human MCF7 cells assessed as total apoptotic cells incubated for 24 hrs by annexin V-FITC/PI staining based flow cytometry analysis (reference value: 2.11%); type: functional
MCF7 [20] = experiment: Induction of cell cycle arrest in human MCF7 cells assessed as accumulation of cells at G0/G1 phase incubated for 24 hrs by PI staining based flow cytometry analysis (reference value: 52.61%); type: functional
HeLa [21] = experiment: Induction of cell cycle arrest in human HeLa cells assessed as cell debris incubated for 24 hrs by PI staining based flow cytometry analysis (reference value: 2.13%); type: functional
MCF7 [22] = experiment: Induction of cell cycle arrest in human MCF7 cells assessed as accumulation of cells at S phase incubated for 24 hrs by PI staining based flow cytometry analysis (reference value: 35.19%); type: functional
MCF7 [23] = experiment: Induction of apoptosis in human MCF7 cells assessed as necrotic cells incubated for 24 hrs by annexin V-FITC/PI staining based flow cytometry analysis (reference value: 1.28%); type: functional
[24] = molecular target: Epidermal growth factor receptor (Homo sapiens, UniProt P00533); experiment: Inhibition of EGFR (unknown origin) by fluorimetric assay
HeLa [25] = experiment: Induction of apoptosis in human HeLa cells assessed as necrotic cells incubated for 24 hrs by annexin V-FITC/PI staining based flow cytometry analysis (reference value: 1.15%); type: functional
HeLa [26] = experiment: Induction of apoptosis in human HeLa cells assessed as total apoptotic cells incubated for 24 hrs by annexin V-FITC/PI staining based flow cytometry analysis (reference value: 1.85%); type: functional
MCF7 [27] = experiment: Induction of apoptosis in human MCF7 cells assessed as late apoptotic cells incubated for 24 hrs by annexin V-FITC/PI staining based flow cytometry analysis (reference value: 0.21%); type: functional
MCF7 [28] = experiment: Induction of cell cycle arrest in human MCF7 cells assessed as accumulation of cells at pre-G1 phase incubated for 24 hrs by PI staining based flow cytometry analysis (reference value: 2.11%); type: functional
Dihydrofolate reductase = molecular target: T1, Dihydrofolate reductase (Homo sapiens, UniProt P00374); experiment: Inhibition of DHFR (unknown origin) incubated for 2 to 5 mins by absorbance based analysis
T1 sequence (P00374 whole entry): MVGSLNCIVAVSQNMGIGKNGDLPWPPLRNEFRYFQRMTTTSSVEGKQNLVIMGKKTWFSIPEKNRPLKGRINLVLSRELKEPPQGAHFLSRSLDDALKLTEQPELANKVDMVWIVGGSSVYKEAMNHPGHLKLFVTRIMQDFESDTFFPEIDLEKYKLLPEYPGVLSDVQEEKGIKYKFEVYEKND

HeLa [29] = experiment: Induction of cell cycle arrest in human HeLa cells assessed as accumulation of cells at G0/G1 phase incubated for 24 hrs by PI staining based flow cytometry analysis (reference value: 61.08%); type: functional
HeLa [30] = experiment: Induction of cell cycle arrest in human HeLa cells assessed as cell aggregates incubated for 24 hrs by PI staining based flow cytometry analysis (reference value: 1.46%); type: functional
MCF7 [31] = experiment: Induction of cell cycle arrest in human MCF7 cells assessed as accumulation of cells at G2/M phase incubated for 24 hrs by PI staining based flow cytometry analysis (reference value: 12.2%); type: functional
HeLa [32] = experiment: Induction of apoptosis in human HeLa cells assessed as early apoptotic cells incubated for 24 hrs by annexin V-FITC/PI staining based flow cytometry analysis (reference value: 0.54%); type: functional

Epidermal growth factor receptor, sequence (P00533 whole entry): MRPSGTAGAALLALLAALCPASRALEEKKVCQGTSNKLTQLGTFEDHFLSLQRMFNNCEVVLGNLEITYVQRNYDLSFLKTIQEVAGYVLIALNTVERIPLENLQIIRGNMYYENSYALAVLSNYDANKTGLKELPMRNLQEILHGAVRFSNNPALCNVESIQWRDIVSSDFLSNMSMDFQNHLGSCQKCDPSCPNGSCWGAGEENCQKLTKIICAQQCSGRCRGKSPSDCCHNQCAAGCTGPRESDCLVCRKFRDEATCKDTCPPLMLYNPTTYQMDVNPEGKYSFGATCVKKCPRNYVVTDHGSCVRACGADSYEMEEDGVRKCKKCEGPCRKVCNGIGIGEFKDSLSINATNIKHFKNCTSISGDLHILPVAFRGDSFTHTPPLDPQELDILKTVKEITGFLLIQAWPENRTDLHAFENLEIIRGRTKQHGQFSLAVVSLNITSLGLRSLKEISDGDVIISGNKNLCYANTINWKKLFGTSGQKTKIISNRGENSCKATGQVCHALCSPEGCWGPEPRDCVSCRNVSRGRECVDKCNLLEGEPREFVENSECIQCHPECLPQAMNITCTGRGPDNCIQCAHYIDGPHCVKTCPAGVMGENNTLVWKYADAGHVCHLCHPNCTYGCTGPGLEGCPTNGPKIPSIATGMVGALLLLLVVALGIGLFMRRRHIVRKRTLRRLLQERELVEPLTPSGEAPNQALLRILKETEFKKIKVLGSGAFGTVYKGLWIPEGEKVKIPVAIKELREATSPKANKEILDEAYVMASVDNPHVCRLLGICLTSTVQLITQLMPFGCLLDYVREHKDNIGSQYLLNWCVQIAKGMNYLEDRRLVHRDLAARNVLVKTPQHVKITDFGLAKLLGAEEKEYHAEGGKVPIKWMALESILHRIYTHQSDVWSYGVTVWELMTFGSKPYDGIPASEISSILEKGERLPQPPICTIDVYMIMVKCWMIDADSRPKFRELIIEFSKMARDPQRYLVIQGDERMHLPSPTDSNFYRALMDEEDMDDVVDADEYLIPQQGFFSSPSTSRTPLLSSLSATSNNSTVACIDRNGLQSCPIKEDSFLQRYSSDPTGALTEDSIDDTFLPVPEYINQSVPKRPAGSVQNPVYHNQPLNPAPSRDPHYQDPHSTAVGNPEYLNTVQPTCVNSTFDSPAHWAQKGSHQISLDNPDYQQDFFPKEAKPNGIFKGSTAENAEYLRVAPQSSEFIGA

## CC(=O)Nc1nc(C(=O)NNC(=O)CCN2CCN(Cc3ccccc3)CC2)cs1
HepG2
  IC50: 28.7 µM
MCF7 [1]
  IC50: 29.3 µM
HeLa [2]
  IC50: 23.6 µM
HEp-2
  IC50: 39 µM
PC-3
  IC50: 34.4 µM
HCT-116
  IC50: 37.1 µM

## COc1cccc2c1C(=O)c1c(O)c3c(c(O)c1C2=O)C[C@@](O)(C(=O)CO)C[C@@H]3O[C@H]1C[C@H](N)[C@H](O)[C@H](C)O1 [DOXORUBICIN]
[3]
  Activity: 27 g
Ehrlich
  Activity: 78.9%
[4]
  Activity: 25%

## CC(=O)Nc1nc(C(=O)NNC(=O)CN2CCOCC2)cs1
HepG2
  IC50: 20.8 µM
[5]
  selectivity ratio: 2.73
[6]
  selectivity ratio: 1.41
MCF7 [1]
  IC50: 13.6 µM
[7]
  selectivity ratio: 1.79
[8]
  selectivity ratio: 2.42
[9]
  selectivity ratio: 2.17
HeLa [2]
  IC50: 15.5 µM
HEp-2
  IC50: 17.2 µM
[10]
  selectivity ratio: 1.25
PC-3
  IC50: 29.8 µM
[11]
  IC50 at 24 h: 37.2 µM
HCT-116
  IC50: 26.4 µM

## CC(=O)NNC(=O)c1csc(NC(C)=O)n1
HepG2
  IC50: 87.2 µM
MCF7 [1]
  IC50: 49.4 µM
HeLa [2]
  IC50: 57.4 µM
HEp-2
  IC50: 72.1 µM
HCT-116
  IC50: 69.3 µM

## CC(=O)Nc1nc(C(=O)NNC(=O)CCl)cs1
HepG2
  IC50: 43.8 µM
MCF7 [1]
  IC50: 39.1 µM
HeLa [2]
  IC50: 35.3 µM
HEp-2
  IC50: 58 µM
PC-3
  IC50: 54.7 µM
HCT-116
  IC50: 52.3 µM

## CC(=O)Nc1nc(C(=O)NNC(=O)CCN2CCCCC2)cs1
MCF7 [12]
  Activity: 1.46%
HeLa [13]
  Activity: 24.39%
[3]
  Activity: 29.4 g
HeLa [14]
  Activity: 2.89%
HepG2
  IC50: 6.21 µM
HeLa [15]
  Activity: 45.81%
MCF7 [16]
  Activity: 8.31%
MCF7 [17]
  Activity: 2.19%
HeLa [18]
  Activity: 44.39%
MCF7 [19]
  Activity: 36.22%
MCF7 [20]
  Activity: 57.43%
HeLa [21]
  Activity: 2.19%
MCF7 [22]
  Activity: 38.66%
[5]
  selectivity ratio: 8.19
[6]
  selectivity ratio: 3.37
MCF7 [1]
  IC50: 4.87 µM
MCF7 [23]
  Activity: 5.19%
[7]
  selectivity ratio: 6.43
[24]
  IC50: 9.2 µM
HeLa [25]
  Activity: 7.41%
[8]
  selectivity ratio: 23.9
[9]
  selectivity ratio: 5.24
Ehrlich
  Activity: 72.3%
HeLa [2]
  IC50: 1.67 µM
HeLa [26]
  Activity: 45.81%
MCF7 [27]
  Activity: 22.72%
HEp-2
  IC50: 7.62 µM
MCF7 [28]
  Activity: 36.22%
[4]
  Activity: 18.3%
Dihydrofolate reductase
  IC50: 262 nM
[10]
  selectivity ratio: 4.9
HeLa [29]
  Activity: 52.72%
HeLa [30]
  Activity: 1.55%
PC-3
  IC50: 8.14 µM
MCF7 [31]
  Activity: 3.91%
[11]
  IC50 at 24 h: 39.9 µM
HCT-116
  IC50: 11.8 µM
HeLa [32]
  Activity: 14.01%

## CC(=O)Nc1nc(C(=O)NNC(=O)CCN2CCOCC2)cs1
HepG2
  IC50: 7.34 µM
[5]
  selectivity ratio: 9.2
[6]
  selectivity ratio: 4.06
MCF7 [1]
  IC50: 5.81 µM
[7]
  selectivity ratio: 7.29
[24]
  IC50: 0.143 µM
[8]
  selectivity ratio: 14
[9]
  selectivity ratio: 5.82
HeLa [2]
  IC50: 3.81 µM
HEp-2
  IC50: 9.19 µM
Dihydrofolate reductase
  IC50: 159 nM
[10]
  selectivity ratio: 5.08
PC-3
  IC50: 10.5 µM
[11]
  IC50 at 24 h: 53.5 µM
HCT-116
  IC50: 13.2 µM
